Reference: ChEMBL document CHEMBL1124889, “Alfred Burger award address. Bioactive alkaloids. 4. Results of recent investigations with colchicine and physostigmine” (J Med Chem, 1990)

Legend:
Cholinesterase [1] = target: T1, Cholinesterase (Homo sapiens, UniProt P06276); experiment: Inhibitory activity against Butyrylcholinesterase in cortex; format: tissue-based
Cholinesterase [2] = target: T1, Cholinesterase; experiment: Inhibitory activity against Butyrylcholinesterase in plasma; format: cell-free
Acetylcholinesterase [3] = target: T2, Acetylcholinesterase (Homo sapiens, UniProt P22303); experiment: Inhibitory activity against Acetylcholinesterase in erythrocyte
T2 sequence (P22303 whole entry): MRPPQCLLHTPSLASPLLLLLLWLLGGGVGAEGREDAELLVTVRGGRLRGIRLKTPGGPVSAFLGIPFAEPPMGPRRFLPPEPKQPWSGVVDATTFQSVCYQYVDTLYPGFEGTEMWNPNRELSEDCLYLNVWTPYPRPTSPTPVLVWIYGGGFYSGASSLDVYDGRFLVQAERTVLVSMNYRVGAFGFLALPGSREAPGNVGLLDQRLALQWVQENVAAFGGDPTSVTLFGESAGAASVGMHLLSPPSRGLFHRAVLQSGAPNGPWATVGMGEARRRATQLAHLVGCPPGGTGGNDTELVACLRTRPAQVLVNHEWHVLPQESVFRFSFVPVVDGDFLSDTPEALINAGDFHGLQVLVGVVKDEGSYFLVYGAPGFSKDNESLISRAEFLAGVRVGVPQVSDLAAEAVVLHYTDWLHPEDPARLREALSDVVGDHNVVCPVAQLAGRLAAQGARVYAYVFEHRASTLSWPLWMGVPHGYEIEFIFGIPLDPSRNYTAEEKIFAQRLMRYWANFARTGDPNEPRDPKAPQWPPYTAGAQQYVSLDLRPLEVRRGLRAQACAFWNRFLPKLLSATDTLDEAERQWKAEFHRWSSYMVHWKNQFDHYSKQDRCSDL

Acetylcholinesterase [4] = target: T2, Acetylcholinesterase; experiment: Inhibitory activity against Acetylcholinesterase in cortex; format: tissue-based
Acetylcholinesterase [5] = target: Acetylcholinesterase (Electrophorus electricus, UniProt O42275); experiment: Inhibitory activity against Acetylcholinesterase in electric eel
Sequence of Acetylcholinesterase (Electrophorus electricus, UniProt O42275) (O42275 whole entry): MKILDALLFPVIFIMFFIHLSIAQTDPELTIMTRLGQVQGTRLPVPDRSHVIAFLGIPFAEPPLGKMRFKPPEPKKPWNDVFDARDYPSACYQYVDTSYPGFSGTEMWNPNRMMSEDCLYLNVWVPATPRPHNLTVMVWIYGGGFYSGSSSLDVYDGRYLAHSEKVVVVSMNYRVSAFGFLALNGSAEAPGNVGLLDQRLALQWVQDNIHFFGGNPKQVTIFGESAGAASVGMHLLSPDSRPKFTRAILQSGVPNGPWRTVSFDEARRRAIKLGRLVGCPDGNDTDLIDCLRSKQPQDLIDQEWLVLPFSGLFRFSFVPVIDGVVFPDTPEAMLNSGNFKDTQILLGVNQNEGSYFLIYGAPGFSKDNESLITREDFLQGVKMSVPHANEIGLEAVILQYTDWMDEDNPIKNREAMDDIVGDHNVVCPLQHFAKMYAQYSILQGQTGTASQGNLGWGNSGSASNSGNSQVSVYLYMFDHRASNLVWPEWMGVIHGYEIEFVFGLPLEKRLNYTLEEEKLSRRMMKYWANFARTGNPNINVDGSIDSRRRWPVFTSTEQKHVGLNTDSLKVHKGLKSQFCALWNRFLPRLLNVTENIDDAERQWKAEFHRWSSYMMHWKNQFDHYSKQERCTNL

T1 sequence (P06276 whole entry): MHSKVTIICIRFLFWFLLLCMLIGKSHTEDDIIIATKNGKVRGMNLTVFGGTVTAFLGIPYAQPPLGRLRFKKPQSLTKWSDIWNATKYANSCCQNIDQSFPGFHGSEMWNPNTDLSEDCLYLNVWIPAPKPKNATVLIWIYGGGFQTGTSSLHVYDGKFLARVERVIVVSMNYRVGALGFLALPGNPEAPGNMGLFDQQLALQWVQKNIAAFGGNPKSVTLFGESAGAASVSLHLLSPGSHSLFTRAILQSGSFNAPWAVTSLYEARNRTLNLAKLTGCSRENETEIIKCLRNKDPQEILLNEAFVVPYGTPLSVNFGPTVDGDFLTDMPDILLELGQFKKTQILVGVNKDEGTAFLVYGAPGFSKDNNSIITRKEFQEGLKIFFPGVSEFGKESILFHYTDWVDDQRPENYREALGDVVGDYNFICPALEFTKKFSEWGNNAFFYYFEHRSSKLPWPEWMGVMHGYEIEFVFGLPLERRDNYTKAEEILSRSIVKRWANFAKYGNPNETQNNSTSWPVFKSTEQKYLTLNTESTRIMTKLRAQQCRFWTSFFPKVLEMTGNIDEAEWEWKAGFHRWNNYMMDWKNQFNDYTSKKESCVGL

Structure (SMILES): C=CCN1CC[C@@]2(C)c3cc(OC(=O)NC)ccc3N(C)[C@@H]12
- IC50 (Cholinesterase [1]): 16 nM
- IC50 (Cholinesterase [2]): 3 nM

Structure (SMILES): CN(C)C(=O)Oc1ccc2c(c1)[C@]1(C)CCN(C)[C@@H]1N2C
- IC50 (Cholinesterase [1]): 3000 nM
- IC50 (Acetylcholinesterase [3]): 210 nM
- IC50 (Cholinesterase [2]): 420 nM
- IC50 (Acetylcholinesterase [4]): 310 nM
- IC50 (Acetylcholinesterase [5]): 970 nM

Structure (SMILES): CN1CC[C@@]2(C)c3cc(OC(=O)NC(C)(C)C)ccc3N(C)[C@@H]12
- IC50 (Cholinesterase [1]): 11000 nM
- IC50 (Acetylcholinesterase [3]): 23000 nM
- IC50 (Cholinesterase [2]): 2000 nM
- IC50 (Acetylcholinesterase [4]): 32000 nM
- IC50 (Acetylcholinesterase [5]): > 10000 nM

Structure (SMILES): CCCCCCCCNC(=O)Oc1ccc2c(c1)[C@]1(C)CCN(C)[C@@H]1N2C
- IC50 (Cholinesterase [1]): 9 nM
- IC50 (Cholinesterase [2]): 4 nM

Structure (SMILES): COc1ccc(NC(=O)Oc2ccc3c(c2)[C@]2(C)CCN(C)[C@@H]2N3C)cc1
- IC50 (Cholinesterase [1]): 230 nM
- IC50 (Cholinesterase [2]): 71 nM
- IC50 (Acetylcholinesterase [5]): 1700 nM

Structure (SMILES): CNC(=O)Oc1ccc2c(c1)[C@]1(C)CCN(CCc3ccccc3)[C@@H]1N2C
- IC50 (Acetylcholinesterase [3]): 220 nM
- IC50 (Acetylcholinesterase [4]): 150 nM
